The values that follow come from PMC9503608, “An Insight into Symmetrical Cyanine Dyes as Promising Selective Antiproliferative Agents in Caco-2 Colorectal Cancer Cells” (Molecules, 2022).

Data set [1] is described as follows: Photostability evaluation in PBS (absorbance decay at 376 nm). Format: physicochemical. The settings on record: 10 µM in PBS. The procedure:
The photostability of the dye 12 was evaluated using a concentration of 10 µM prepared from the dilution of 10 mM DMSO stock solution in PBS. In a 96-well plate, 100 µL of dye solution was added, irradiated in the same way as that previously described for photocytotoxicity evaluation for 120 min, and spectrophotometric readings were taken over this period at the dye 12’s maximum absorption wavelength (376 nm). Two independent experiments were performed in quadruplicate. The absorbance was normalised to simplify the analysis.

For data set [2], the system named is MCF-7 breast adenocarcinoma cell line. The experiment in a line: MTT cell viability assay, MCF-7. Type of data set: cell-based, human. The settings on record: Homo sapiens. The procedure: (§1) Caco-2, MCF-7, PC-3, and NHDF cell lines were obtained from the American Type Culture Collection (ATCC) and maintained in 75 cm^2 culture flasks in a humidified atmosphere at 37 °C with 5% carbon dioxide using a LEEC Culture Safe Precision CO2 Incubator. The culture media was renewed every two to three days. The NHDF cell line was cultured in Roswell Park Memorial Institute (RPMI) medium supplemented with 10% of inactivated fetal bovine serum (FBS), 2 mM of L-glutamine, 10 mM of 4-(2-hydroxyethyl)-1-piperazineethanesulfonic acid (HEPES), 1 mM of sodium pyruvate, and 1% of antibiotic/antimycotic mixture (Ab; 10,000 U/mL of penicillin G, […] of streptomycin, and 25 µg/mL of amphotericin B). The PC-3 cell line was also cultured in RPMI 1640 medium supplemented with 10% inactivated FBS and 1% of an antibiotic mixture (Sp; 10,000 U/mL of penicillin G and […] of streptomycin). The Caco-2 and MCF-7 cell lines were grown in Dulbecco’s Modified Eagle Medium (DMEM). Caco-2 was supplemented with 20% of inactivated FBS and 1% of Sp. On the other hand, the MCF-7 medium was complemented with 10% of inactivated FBS and 1% of Ab. All manipulations were performed in a Labculture Class II A2 Biological Safety Cabinet.
(§2) After the near confluency of cultures, cells were detached with a solution of 0.125 g/L trypsin and 0.02 g/L ethylenediaminetetracetic acid (EDTA), counted using the trypan blue method, resuspended, and seeded in 96-well culture plates (100 µL, 2 × 10^4 cells/mL). Following 48 h of adherence, cells were treated with the test solutions and incubated for 72 h. This incubation, as well as the solution manipulations, were performed in an environment protected from light. After the incubation, the medium was replaced with a fresh incomplete culture medium (without FBS and Ab or Sp) and MTT solution (5 mg/mL in phosphate buffer saline (PBS)). After additional incubation for 4 h, the MTT medium was removed, formazan crystals were dissolved in DMSO, and the optical density of each well was measured at 570 nm using a microplate spectrophotometer Bio-Rad xMark. Untreated cells were used as a negative control and 5-FU as the positive control. The results were expressed as the relative cell proliferation relative to the negative control cells. […] To determine the IC50 values, Caco-2, MCF-7, PC-3, and NHDF cells were exposed to increasing concentrations between 0.001 and 100 μM.
Background: Formazan colour is commonly taken as a measure of viable cells.

Data set [3] relates to Caco-2 cells. The experiment in a line: Apoptosis by propidium iodide staining and flow cytometry. Format: cell-based, human. Here is the method: The apoptosis occurrence and influence of the dye 12 on the cell cycle were evaluated using propidium iodide (PI) staining and flow cytometry, as described by Riccardi and Nicolleti. After the near confluency of the culture, trypsinisation, and counting, Caco-2 cells were seeded (2 mL, 3 × 10^4 cells/mL) in 6-well plates. After 48 h of adherence, the cells were treated with the test solutions (3 mL and 5 mL for negative control) and incubated for 72 h. Untreated cells were used as the negative control, and sorbitol and 5-FU [56] were used as positive controls for the apoptosis and cell cycle distribution studies, respectively. After incubation, the supernatant was collected and the cells were washed with PBS and combined with the cells harvested using the trypsin treatment. This cell suspension was maintained on ice and centrifugated, and then the pellet was resuspended in 0.5 mL of PBS. The cells were fixed by adding 4.5 mL of 70% ethanol cooled at −20 °C and were stored at the same temperature. For the cytometry analysis, PBS was added to the fixed cells before centrifugation, and then the ethanolic supernatant was removed. The pellet was resuspended in 0.5 mL of PBS and 0.5 mL of DNA extraction (192 mL of 0.2 M sodium phosphate and 8 mL of […], pH 7.8) was added. After incubation for 5 min, the cells were centrifuged, the supernatant was removed, and the pellet resuspended in 0.3 mL of staining solution (20 µg/mL of PI and 0.2 mg/mL of DNase-free RNase in PBS). Using a FACSCalibur flow cytometer and the 488 nm laser line, a minimum of 20,000 events were recorded. Acquisition and apoptosis analysis was performed using BD CellQuestTM Pro 4.0.2 Software. Cell cycle analysis was performed with ModFit LT 5.0.9 software. To exclude debris and necrotic cells, events with a lower diameter (forward scatter; FCS) and reduced PI fluorescence (FL3) than the hypodiploid apoptotic cells were eliminated. Two independent experiments were performed.
A general note: In flow cytometry, cells or beads pass a laser one at a time.

Data set [4] can be described thus: MTT cell viability assay, NHDF. Type of data set: cell-based, human. As to conditions: human, normal human dermal fibroblasts (NHDF), single concentration of 10 µM, 72 h, mean ± SD; read-out: cell viability percentage in relation with control, NHDF. Here is the method: as §1, §2
The test system of data set [5] is normal human dermal fibroblasts (NHDF). The experiment in a line: MTT cell viability assay, NHDF. As to conditions: Homo sapiens, NHDF, 72 h, 72 h of incubation, MTT, protected from light. Type of data set: cell-based. The procedure:
as §1, §2

The test system of data set [6] is NHDF cell line. The experiment in a line: Photocytotoxicity evaluation (MTT after white LED light irradiation). Type of data set: cell-based, human. As to conditions: 30 min white LED light versus dark. Here is the method: The photocytotoxicity evaluation was performed on the NHDF cell line similar to the above MTT cell viability assay. In contrast to 72 h continuous incubation in the dark with test solutions, cells were subjected to 30 min of constant irradiation with white light from an RGBW LED projector (220–240 V and 30 W, Luxtar) after 48 h of incubation. This light source emits radiation at wavelengths suitable for the excitation of evaluated dye (see support information) with a total fluence rate of 1.196 W/sr·m^2 (measured with a pr-650 spectrascan spectroradiometer, Photo Research Inc., Chatsworth, CA, USA). During the photocytotoxicity treatment, the device was placed over the culture cell plates supported by a closed system at a distance of 12 cm. The maximum temperature of the exposure of the cells was 37 °C. After this irradiation, cells were incubated for an additional 24 h, making up a total of 72 h incubation and exposure to the test solutions. To check the validity of the light source, the squaraine dye 4, which was previously described with relevant photodynamic activity, was used as a positive control. A photocytotoxicity assay was performed in quadruplicate, and at least two independent assays were achieved.

The term viability denotes a per cent measure of how many cells are alive, often set against a control. What is called IC50 is the concentration needed to halve the response being measured. On to `CN1C(=Cc2oc3ccccc3[n+]2C)Oc2ccccc21.Cc1ccc(S(=O)(=O)[O-])cc1` [Dye 12, 3-Methyl-2-((3-methylbenzo[d]oxazol-2(3H)-ylidene)methyl)benzo[d]oxazol-3-ium 4-methylbenzenesulfonate], for which the “decomposition (decrease in absorbance at 376 nm)” value was “approximately 4%” in data set [1] (after 30 min of irradiation) and approximately 5% in data set [1] (after 120 min of irradiation). In addition, the viability at 10 µM in data set [2] (MCF7, 72 h, single concentration of 10 µM, 72 h, mean ± SD, read-out: cell viability percentage in relation with control, MCF-7) is 10.8 ± 1.98%. Moreover, the IC50 in data set [2] (MCF7, 72 h of incubation, MTT, protected from light) is 4.57 µM; in data set [5] it was 14 µM. Further, in data set [3] (Caco-2, 10 µM, 72 h), the “increase in apoptotic cells relative to untreated cells” value stood at 2%. The “apoptosis induced (percent of cells)” value in data set [3] (Caco-2, dye 12 10 µM 72 h, sorbitol 600 mM 24 h) was “about 3%”. Further, the viability at 72 h, 10 µM in data set [4] was found to be 41 ± 0.82%. Moreover, the “photocytotoxicity (irradiation influence on cytotoxicity)” value in data set [6] is “total absence of photocytotoxicity”.
